Reference: ChEMBL document CHEMBL5653622 (Oncotarget, 2016)

Key:
[1] = biological target: Casein kinase 2 (Homo sapiens) (UniProt P67870+P68400+P19784+Q8NEV1); assay: Inhibition of human CK2 assessed as remaining activity at 10 uM in presence of ATP by radiometric kinase assay relative to control; type: protein assay
[2] = Toxicity in Emu-Myc driven transgenic mouse transplant model of B-cell lymphoma assessed as reduction in weight of kidney at 150 mg/kg, po administered for 9 days; type: organism-based; settings: in vivo, 216 h, time 9 day
[3] = biological target: AMP-activated protein kinase (AMPK) alpha-1/beta-1/gamma-1 (Homo sapiens, UniProt P54619+Q13131+Q9Y478); assay: Inhibition of AMPK alpha1/beta1/gamma1 (unknown origin) by FRET based Z-LYTE kinase assay; type: protein-complex assay
[4] = Toxicity in CRTac:Ncr-Fox1 mouse xenografted with human HT-29 cells assessed as body weight at 12.5 mg/kg, po administered for 16 days in presence of gemcitabine relative to control; type: organism-based; settings: in vivo, 384 h, time 16 day
[5] = Plasma protein binding in nude mouse at 10 uM; type: ADME, cell-free
[6] = biological target: Myosin light chain kinase, smooth muscle (Homo sapiens) (UniProt Q15746); assay: Inhibition of human SmMLCK assessed as remaining activity at 10 uM in presence of ATP by radiometric kinase assay relative to control
[7] = biological target: Serine/threonine-protein kinase pim-1 (Homo sapiens) (UniProt P11309); assay: Inhibition of human PIM1 assessed as remaining activity at 10 uM in presence of ATP by radiometric kinase assay relative to control
[8] = biological target: NUAK family SNF1-like kinase 1 (Homo sapiens) (UniProt O60285); assay: Inhibition of human NUAK1 at 10 uM in presence of ATP by radiometric kinase assay relative to control
[9] = biological target: Mitogen-activated protein kinase 12 (Homo sapiens) (UniProt P53778); assay: Inhibition of human p38g MAPK assessed as remaining activity at 10 uM in presence of ATP by radiometric kinase assay relative to control
[10] = biological target: Tyrosine-protein kinase ZAP-70 (Homo sapiens) (UniProt P43403); assay: Inhibition of human ZAP70 assessed as remaining activity at 10 uM in presence of ATP by radiometric kinase assay relative to control
[11] = biological target: Dual specificity testis-specific protein kinase 1 (Homo sapiens) (UniProt Q15569); assay: Inhibition of human TESK1 assessed as remaining activity at 10 uM in presence of ATP by radiometric kinase assay relative to control
Homo sapiens = species: Homo sapiens; assay: Inhibition of human AMPK assessed as remaining activity at 10 uM in presence of ATP by radiometric kinase assay relative to control
[12] = biological target: Dual specificity protein kinase TTK (Homo sapiens) (UniProt P33981); assay: Inhibition of human TTK assessed as remaining activity at 10 uM in presence of ATP by radiometric kinase assay relative to control
[13] = biological target: Rho-associated protein kinase 2 (Homo sapiens) (UniProt O75116); assay: Inhibition of human ROCK2 assessed as remaining activity at 10 uM in presence of ATP by radiometric kinase assay relative to control
[14] = biological target: SRSF protein kinase 1 (Homo sapiens) (UniProt Q96SB4); assay: Inhibition of human SRPK1 assessed as remaining activity at 10 uM in presence of ATP by radiometric kinase assay relative to control
[15] = Inhibition of human CDK2/Cyclin A by FRET based Z-LYTE kinase assay
[16] = biological target: Serine/threonine-protein kinase BRSK1 (Homo sapiens, UniProt Q8TDC3); assay: Inhibition of human BRSK1 by FRET based Z-LYTE kinase assay
[17] = biological target: Protein kinase C gamma type (Homo sapiens) (UniProt P05129); assay: Inhibition of human PKC gamma assessed as remaining activity at 10 uM in presence of ATP by radiometric kinase assay relative to control
[18] = biological target: Eukaryotic elongation factor 2 kinase (Homo sapiens) (UniProt O00418); assay: Inhibition of human EF2K assessed as remaining activity at 10 uM in presence of ATP by radiometric kinase assay relative to control
[19] = biological target: MAP kinase-activated protein kinase 3 (Homo sapiens) (UniProt Q16644); assay: Inhibition of human MAPKAP-K3 assessed as remaining activity at 10 uM in presence of ATP by radiometric kinase assay relative to control
[20] = Toxicity in Emu-Myc driven transgenic mouse transplant model of B-cell lymphoma assessed as reduction in weight of the mesenteric lymph nodes at 150 mg/kg, po administered for 9 days; type: organism-based; settings: in vivo, 216 h, time 9 day
[21] = biological target: Serine/threonine-protein kinase D1 (Homo sapiens, UniProt Q15139); assay: Inhibition of PRKD1 (unknown origin) by 33P radiometric kinase assay
[22] = AUC (0 to t) in BALB/C mouse spleen at 10 mg/kg, iv by LC/MS-MS analysis; type: ADME, organism-based
[23] = biological target: Serine/threonine-protein kinase Nek2 (Homo sapiens) (UniProt P51955); assay: Inhibition of human NEK2a assessed as remaining activity at 10 uM in presence of ATP by radiometric kinase assay relative to control
[24] = biological target: T1, Ribosomal protein S6 kinase alpha-1 (Homo sapiens, UniProt Q15418); assay: Inhibition of human RSK1 by 33P radiometric kinase assay
[25] = biological target: Tyrosine-protein kinase Yes (Homo sapiens) (UniProt P07947); assay: Inhibition of human YES1 assessed as remaining activity at 10 uM in presence of ATP by radiometric kinase assay relative to control
[26] = biological target: Serine/threonine-protein kinase PAK 4 (Homo sapiens) (UniProt O96013); assay: Inhibition of human PAK4 assessed as remaining activity at 10 uM in presence of ATP by radiometric kinase assay relative to control
[27] = biological target: T1, Ribosomal protein S6 kinase alpha-1; assay: Inhibition of human RSK1 assessed as remaining activity at 10 uM in presence of ATP by radiometric kinase assay relative to control
[28] = biological target: Inhibitor of nuclear factor kappa-B kinase subunit epsilon (Homo sapiens) (UniProt Q14164); assay: Inhibition of human IKKe assessed as remaining activity at 10 uM in presence of ATP by radiometric kinase assay relative to control
[29] = biological target: MAP/microtubule affinity-regulating kinase 3 (Homo sapiens, UniProt P27448); assay: Inhibition of human MARK3 assessed as remaining activity at 10 uM in presence of ATP by radiometric kinase assay relative to control
[30] = AUC (0 to t) in BALB/C mouse spleen at 10 mg/kg, po by LC/MS-MS analysis; type: ADME, organism-based
[31] = biological target: Serine/threonine-protein kinase PAK 2 (Homo sapiens) (UniProt Q13177); assay: Inhibition of human PAK2 assessed as remaining activity at 10 uM in presence of ATP by radiometric kinase assay relative to control
Sequence of Serine/threonine-protein kinase PAK 2 (Homo sapiens) (Q13177 whole entry): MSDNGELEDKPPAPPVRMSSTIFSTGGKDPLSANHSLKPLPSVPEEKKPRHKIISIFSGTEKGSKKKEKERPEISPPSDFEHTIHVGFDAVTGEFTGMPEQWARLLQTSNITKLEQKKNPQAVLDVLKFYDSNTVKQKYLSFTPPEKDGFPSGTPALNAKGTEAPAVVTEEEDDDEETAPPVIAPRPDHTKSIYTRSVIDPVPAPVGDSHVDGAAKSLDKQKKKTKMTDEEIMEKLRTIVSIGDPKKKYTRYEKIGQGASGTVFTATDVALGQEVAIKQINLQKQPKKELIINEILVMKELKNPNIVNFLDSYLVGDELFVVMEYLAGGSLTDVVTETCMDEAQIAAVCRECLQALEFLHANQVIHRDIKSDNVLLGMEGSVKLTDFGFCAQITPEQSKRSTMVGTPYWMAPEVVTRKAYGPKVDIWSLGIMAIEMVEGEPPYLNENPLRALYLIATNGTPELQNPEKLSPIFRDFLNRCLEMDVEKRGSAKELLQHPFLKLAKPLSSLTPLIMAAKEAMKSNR

T1 sequence (Q15418 whole entry): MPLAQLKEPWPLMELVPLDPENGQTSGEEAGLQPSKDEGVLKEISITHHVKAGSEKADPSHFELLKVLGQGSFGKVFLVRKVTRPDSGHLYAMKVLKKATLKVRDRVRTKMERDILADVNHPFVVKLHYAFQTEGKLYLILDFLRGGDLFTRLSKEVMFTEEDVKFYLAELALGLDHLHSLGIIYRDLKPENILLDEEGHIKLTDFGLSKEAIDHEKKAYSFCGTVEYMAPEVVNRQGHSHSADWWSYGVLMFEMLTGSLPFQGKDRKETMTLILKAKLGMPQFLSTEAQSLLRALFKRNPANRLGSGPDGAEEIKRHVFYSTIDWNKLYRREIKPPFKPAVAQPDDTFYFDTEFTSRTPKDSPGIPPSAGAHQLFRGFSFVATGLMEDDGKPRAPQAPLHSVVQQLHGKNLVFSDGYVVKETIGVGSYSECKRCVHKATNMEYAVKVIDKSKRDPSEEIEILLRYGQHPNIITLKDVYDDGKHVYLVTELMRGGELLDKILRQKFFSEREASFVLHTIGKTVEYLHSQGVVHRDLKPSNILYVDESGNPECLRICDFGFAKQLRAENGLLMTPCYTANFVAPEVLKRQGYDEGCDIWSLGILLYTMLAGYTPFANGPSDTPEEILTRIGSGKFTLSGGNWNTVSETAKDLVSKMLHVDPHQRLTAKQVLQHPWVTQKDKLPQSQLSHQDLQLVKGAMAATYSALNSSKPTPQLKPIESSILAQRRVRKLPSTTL
Sequence of Dual specificity testis-specific protein kinase 1 (Homo sapiens) (Q15569 whole entry, looked up): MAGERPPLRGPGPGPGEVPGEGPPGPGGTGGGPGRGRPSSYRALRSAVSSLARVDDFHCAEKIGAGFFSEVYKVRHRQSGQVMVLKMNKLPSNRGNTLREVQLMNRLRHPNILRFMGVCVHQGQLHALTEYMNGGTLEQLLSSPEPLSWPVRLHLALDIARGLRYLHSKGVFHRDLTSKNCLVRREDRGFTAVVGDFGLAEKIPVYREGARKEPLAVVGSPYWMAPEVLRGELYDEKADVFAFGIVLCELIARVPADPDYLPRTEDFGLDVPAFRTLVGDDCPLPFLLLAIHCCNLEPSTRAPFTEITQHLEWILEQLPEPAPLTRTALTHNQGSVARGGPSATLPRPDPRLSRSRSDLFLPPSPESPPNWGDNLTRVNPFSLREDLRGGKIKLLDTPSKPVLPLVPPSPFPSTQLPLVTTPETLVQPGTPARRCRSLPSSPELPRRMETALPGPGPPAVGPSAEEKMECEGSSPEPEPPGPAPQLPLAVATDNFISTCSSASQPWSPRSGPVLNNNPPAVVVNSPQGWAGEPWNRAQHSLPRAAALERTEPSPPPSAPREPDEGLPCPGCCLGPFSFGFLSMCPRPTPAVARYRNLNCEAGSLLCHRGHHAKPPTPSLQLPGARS
Sequence of MAP kinase-activated protein kinase 3 (Homo sapiens) (Q16644 whole entry, looked up): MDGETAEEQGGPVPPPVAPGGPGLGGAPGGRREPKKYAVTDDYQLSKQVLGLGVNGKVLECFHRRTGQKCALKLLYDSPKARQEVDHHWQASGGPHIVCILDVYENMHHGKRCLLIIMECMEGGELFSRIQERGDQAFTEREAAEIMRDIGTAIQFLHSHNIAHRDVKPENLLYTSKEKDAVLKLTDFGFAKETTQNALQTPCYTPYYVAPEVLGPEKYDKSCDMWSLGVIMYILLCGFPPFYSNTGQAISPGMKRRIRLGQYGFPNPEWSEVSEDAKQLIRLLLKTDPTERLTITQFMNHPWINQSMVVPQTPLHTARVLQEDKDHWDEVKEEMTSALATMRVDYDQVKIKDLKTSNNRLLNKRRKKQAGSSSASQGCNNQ
Sequence of MAP/microtubule affinity-regulating kinase 3 (P27448 whole entry, looked up): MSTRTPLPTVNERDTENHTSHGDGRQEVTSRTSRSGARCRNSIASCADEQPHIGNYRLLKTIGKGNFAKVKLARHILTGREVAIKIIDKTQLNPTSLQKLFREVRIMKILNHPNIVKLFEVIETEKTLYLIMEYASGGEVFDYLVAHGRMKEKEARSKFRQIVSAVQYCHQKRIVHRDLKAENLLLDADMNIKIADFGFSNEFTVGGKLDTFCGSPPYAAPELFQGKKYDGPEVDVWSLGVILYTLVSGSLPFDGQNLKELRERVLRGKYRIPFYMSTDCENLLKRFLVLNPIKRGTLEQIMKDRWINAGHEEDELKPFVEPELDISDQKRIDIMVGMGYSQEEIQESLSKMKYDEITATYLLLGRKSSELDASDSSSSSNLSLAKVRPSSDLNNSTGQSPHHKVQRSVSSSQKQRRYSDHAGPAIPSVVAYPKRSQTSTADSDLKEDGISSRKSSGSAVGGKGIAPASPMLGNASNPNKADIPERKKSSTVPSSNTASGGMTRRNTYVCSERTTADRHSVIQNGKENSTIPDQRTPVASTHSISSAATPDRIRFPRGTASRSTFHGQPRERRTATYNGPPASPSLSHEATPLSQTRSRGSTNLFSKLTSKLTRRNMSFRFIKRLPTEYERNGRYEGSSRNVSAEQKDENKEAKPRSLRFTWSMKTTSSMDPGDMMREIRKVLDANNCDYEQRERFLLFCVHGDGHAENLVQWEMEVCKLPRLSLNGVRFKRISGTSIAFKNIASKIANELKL
Sequence of Serine/threonine-protein kinase pim-1 (Homo sapiens) (P11309 whole entry, looked up): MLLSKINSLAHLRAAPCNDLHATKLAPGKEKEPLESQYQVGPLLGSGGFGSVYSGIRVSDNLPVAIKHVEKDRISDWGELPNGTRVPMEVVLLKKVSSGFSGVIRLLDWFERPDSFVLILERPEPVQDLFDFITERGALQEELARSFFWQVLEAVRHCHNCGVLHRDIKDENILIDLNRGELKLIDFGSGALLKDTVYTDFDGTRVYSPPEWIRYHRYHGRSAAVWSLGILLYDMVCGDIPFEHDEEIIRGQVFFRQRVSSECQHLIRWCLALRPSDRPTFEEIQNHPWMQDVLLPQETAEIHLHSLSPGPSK
Sequence of Rho-associated protein kinase 2 (Homo sapiens) (O75116 whole entry, looked up): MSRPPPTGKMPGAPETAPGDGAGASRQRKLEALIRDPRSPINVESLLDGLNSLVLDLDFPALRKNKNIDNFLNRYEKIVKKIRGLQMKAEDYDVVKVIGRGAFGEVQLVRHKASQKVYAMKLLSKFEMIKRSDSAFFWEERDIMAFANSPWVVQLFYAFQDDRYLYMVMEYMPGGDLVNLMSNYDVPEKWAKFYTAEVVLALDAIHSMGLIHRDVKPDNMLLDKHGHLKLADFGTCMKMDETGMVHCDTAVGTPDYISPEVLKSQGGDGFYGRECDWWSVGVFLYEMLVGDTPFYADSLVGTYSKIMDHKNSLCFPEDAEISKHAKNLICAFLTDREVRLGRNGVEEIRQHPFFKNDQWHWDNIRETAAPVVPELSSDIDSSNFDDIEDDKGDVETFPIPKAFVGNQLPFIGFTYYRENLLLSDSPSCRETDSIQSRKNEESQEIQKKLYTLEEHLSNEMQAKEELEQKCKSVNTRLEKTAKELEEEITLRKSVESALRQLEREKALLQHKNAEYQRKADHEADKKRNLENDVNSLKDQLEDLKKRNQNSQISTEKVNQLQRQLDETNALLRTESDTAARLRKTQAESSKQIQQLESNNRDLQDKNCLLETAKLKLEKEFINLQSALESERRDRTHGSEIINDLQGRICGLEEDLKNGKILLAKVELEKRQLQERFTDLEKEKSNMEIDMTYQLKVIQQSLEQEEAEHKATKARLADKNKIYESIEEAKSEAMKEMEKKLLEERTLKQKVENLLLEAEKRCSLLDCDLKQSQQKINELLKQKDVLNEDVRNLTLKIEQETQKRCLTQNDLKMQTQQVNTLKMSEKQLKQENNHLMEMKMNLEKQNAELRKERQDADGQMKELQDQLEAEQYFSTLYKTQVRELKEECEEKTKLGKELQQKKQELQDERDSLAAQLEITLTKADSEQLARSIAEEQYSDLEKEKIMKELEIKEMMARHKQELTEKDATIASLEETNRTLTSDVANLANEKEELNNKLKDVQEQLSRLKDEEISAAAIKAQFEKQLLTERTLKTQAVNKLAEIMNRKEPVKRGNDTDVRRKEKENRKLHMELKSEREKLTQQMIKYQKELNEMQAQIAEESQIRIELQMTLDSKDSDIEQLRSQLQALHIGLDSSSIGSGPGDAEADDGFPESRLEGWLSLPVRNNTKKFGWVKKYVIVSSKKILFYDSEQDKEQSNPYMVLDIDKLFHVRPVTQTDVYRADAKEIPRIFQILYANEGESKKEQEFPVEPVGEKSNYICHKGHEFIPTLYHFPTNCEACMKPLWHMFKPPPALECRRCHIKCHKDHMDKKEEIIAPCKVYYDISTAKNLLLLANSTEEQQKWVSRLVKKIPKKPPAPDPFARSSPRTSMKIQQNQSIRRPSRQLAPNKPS

Activity [1]: 81% | IC50 [3]: 2970 nM | PPB [5]: 75.6% | Activity [6]: 84% | Activity [7]: 56% | inhibition [8]: 94% | Activity [9]: 95% | Activity [10]: 93% | Activity [11]: 101% | Activity (Homo sapiens): 32% | Activity [12]: 36% | Activity [13]: 95% | Activity [14]: 82% | IC50 [15]: 3850 nM | IC50 [16]: 1660 nM | Activity [17]: 87% | Activity [18]: 98% | Activity [19]: 114% | IC50 [21]: 298 nM | AUC(0-t) [22]: 262 µM·h | Activity [23]: 96% | IC50 [24]: 362 nM | Activity [25]: 65% | Activity [26]: 49% | Activity [27]: 7% | Activity [28]: 102% | Activity [29]: 13% | AUC(0-t) [30]: 222 µM·h | Activity [31]: 96%
Structure (SMILES): N#Cc1cnc(Nc2cc(NC[C@H]3CNCCO3)c(C(F)(F)F)cn2)cn1 [SRA-737]
Activity [2]: Toxic | Activity [4]: 97.5% | Activity [20]: Toxic
